The values below come from patent US20240059729A1, “MULTIFUNCTIONAL CYCLIC DINUCLEOTIDE AND USE THEREOF” (TYLIGAND BIOSCIENCE (SHANGHAI) LIMITED, priority 2020, published 2024).

SMILES strings stand for the structures. Where a name gives a salt, the structure may show the parent alone.

The data set in a line: Discovery and identification of metabolites in hepatocytes. It is filed as in vitro ADME, mouse, rat, dog, monkey, human. The settings on record: 5 species of hepatocytes, 240 min; FIG. 4-B. The text has this:
The main metabolites of the compounds of the invention in 5 species (mouse, rat, dog, monkey, human) of hepatocytes were similarly identified according to standard methods of in vitro metabolic stability studies conventional in the art, for example (Kems, Edward H. and Di Li (2008). Drug-like Properties: Concepts, Structure Design and Methods: From ADME to Toxicity Optimization, San Diego: Academic Press; Di, Li et al, Optimization of a High Throughput Microsomal Stability Screening Assay for Profiling Drug Discovery Candidates, J Biomol Screen. 2003, 8(4), 453).
The hepatocytes used in the experiment: human hepatocytes (SHQY, Cat. #BQHPCH10, Lot. #HEP190006-TA05), dog hepatocytes (BioIVT, Cat. #M00205, Lot. #ZMB); monkey hepatocytes (XENOTECH, Cat. #PPCH2000, Lot. #2010022), rat hepatocytes (SHQY, Cat. #BQR1000⋅H15, Lot. #HEP134049), and mouse hepatocytes (BioIVT, Cat. #M005052, Lot. #MEO).
A HI hepatocyte maintenance medium (BIOIVT, Cat. #Z99009; Lot. #C02060C) was pre-warmed to 37° C. Cryopreserved hepatocyte tubes were removed from a liquid nitrogen tank and immediately placed in a shaking water bath at 37±1° C. for 2 minutes±15 seconds. […] The hepatocytes were counted and then the cell suspension was diluted in HI medium to the appropriate density (viable cell density=2×10^6 cells/mL). […]

On to `Nc1nc2c(ncn2[C@@H]2O[C@@H]3CO[P@@](=O)(S)OC4C(F)[C@H](n5cnc6c(N)nc(Cl)nc65)O[C@@H]4CO[P@@](=O)(S)OC2C3O)c(=O)[nH]1` (stereo partly drawn) [Example 10, (2′,3′)-cyclo-(Rp,Rp)-[2′-O-phosphorothioate-diester-guanosine]-[3′-O-phosphorothioate-diester-2-chloro-2′-deoxy-2′-fluoro-beta-adenosine] diammonium salt], for which the “Main metabolite in hepatocytes” value is recorded as “Clofarabine”.
